System: Eimeria strains according to the invention
Assay: Tolerance/sensitivity of the strains to anticoccidial drugs (infection of chickens with the strains and administration of drug)
Format: in vivo
Procedure: all four strains are tolerant to two commonly used anticoccidial ionophores: monensin (110 ppm) and salinomycin (60 ppm). The concentrations tested are commonly used concentrations. Specific tolerance levels were determined by infection of chickens with the strains and administration of ionophores.
These four strains are tolerant for 110 ppm of monensin and for 60 ppm of salinomycin, sensitive for 1 ppm of diclazuril (see FIG. 1) and the proliferative capacity of the four strains is decreased to 76000 (see Table 1b).

CC[C@@H](C(=O)[C@@H](C)[C@@H](O)[C@H](C)[C@@H]1O[C@@H]([C@@H](CC)C(=O)O)CC[C@@H]1C)[C@H]1O[C@]2(C=C[C@@H](O)[C@]3(CC[C@@](C)([C@H]4CC[C@](O)(CC)[C@H](C)O4)O3)O2)[C@H](C)C[C@@H]1C [salinomycin]
tolerance of the strains to salinomycin (salinomycin 60 ppm, chickens infected with the strains): tolerant

CC[C@@]1([C@@H]2O[C@@H]([C@H]3O[C@@](O)(CO)[C@H](C)C[C@@H]3C)C[C@@H]2C)CC[C@H]([C@]2(C)CC[C@]3(C[C@H](O)[C@@H](C)[C@@H]([C@@H](C)[C@@H](OC)[C@H](C)C(=O)O)O3)O2)O1 [monensin]
tolerance of the strains to monensin (monensin 110 ppm, chickens infected with the strains): tolerant

N#CC(c1ccc(Cl)cc1)c1c(Cl)cc(-n2ncc(=O)[nH]c2=O)cc1Cl (stereo not drawn) [diclazuril]
sensitivity of the strains to diclazuril (diclazuril 1 ppm): fully sensitive

— patent publication US7247309B2, “Coccidiosis vaccines” (Intervet International B.V., priority 1999, dated 2007)
